Experimental data reported in US20080293070A1, “Markers for Memory T Cells and Uses Thereof” (priority 2005, published 2008).

Tests used:
Format in all cases: cell-based, human
[1] = tested on: pFOXO3a (S253); test: FOXO3a phosphorylation (S253) in CD4+ T cells after kinase inhibitors, Western blot; conditions: purified CD4+ T cells pre-treated 1 hour; AKT inhibitor 10 μM, Wedelolactone 100 μM
Description: (§1) FIG. 7. AKT and IKK mediate FOXO3a phosphorylation and survival in CD4^+ T cell. (A) Regulation of FOXO3a phosphorylation. Purified CD4^+ T Cells were pre-treated for 1 hour with kinase inhibitors (AKT-VI, AKT inhibitor: 10 μM; STO-609, CamKK inhibitor: 5 μg/ml; Wedelolactone, IKK inhibitor: 100 μM and U0126, MEK1/2 inhibitor: 50 μM). pFoxo3a (S253) was assessed. The results are representative of two independent experiments. (B) CD4^+ T cell susceptibility to apoptosis induced upon treatment with specific kinase inhibitors. CD4^+ T cells were cultured in the presence of kinase inhibitors for 24 hrs (U0126:100 μM; STO-609:10 μg/ml; Wedelolactone and AKT-IV as indicated). After 24 h, the proportion of Annexin-V^+, propidium iodide (PI)^+ cells was quantified by flow cytometry. […] Cells were analyzed by Western Blot (WB) using Bim specific antibodies. […] The levels of pAKT were assessed by flow cytometry in TCM- and TEM-gated subsets. The results are represented as the mean fold increase ±SD, calculated as (MFI of stimulated cells/MFI of un-stimulated cells) of five independent experiments. Values of p (determined by two-tailed T-test) are shown.
(§2) Western Blotting analysis. […] HRP activity was detected using an enhanced chemiluminescence detection procedure (ECL-plus detection system, Amersham Biosciences). […] Protein expression levels were expressed as a percentage of the highest signals obtained. […]

[2] = tested on: CD4+ T cells; test: Apoptosis of CD4+ T cells cultured with kinase inhibitors, Annexin-V flow cytometry; conditions: for proportion of Annexin-V+ cells: CD4+ T cells, 24 hrs with inhibitor; for inhibitor treatment concentration: concentration used to treat sorted TCM and TEM, what the IC50 refers to is not stated
Description: FIG. 7. AKT and IKK mediate FOXO3a phosphorylation and survival in CD4^+ T cell. (A) Regulation of FOXO3a phosphorylation. Purified CD4^+ T Cells were pre-treated for 1 hour with kinase inhibitors (AKT-VI, AKT inhibitor: 10 μM; STO-609, CamKK inhibitor: 5 μg/ml; Wedelolactone, IKK inhibitor: 100 μM and U0126, MEK1/2 inhibitor: 50 μM). pFoxo3a (S253) was assessed. The results are representative of two independent experiments. (B) CD4^+ T cell susceptibility to apoptosis induced upon treatment with specific kinase inhibitors. CD4^+ T cells were cultured in the presence of kinase inhibitors for 24 hrs (U0126:100 μM; STO-609:10 μg/ml; Wedelolactone and AKT-IV as indicated). After 24 h, the proportion of Annexin-V^+, propidium iodide (PI)^+ cells was quantified by flow cytometry. The results are depicted as a percentage of apoptotic cells within the total population and are representative of two independent experiments. (C) Bim expression levels in response to AKT and IKK inhibitors. CD4^+ T cells were treated with AKT-IV (1.6 μM) or wedelolactone (100 μM) for 24 h. Cells were analyzed by Western Blot (WB) using Bim specific antibodies. (D and E) Regulation of AKT and IKK phosphorylation in 4^+ memory subsets. (D) pIKKαβ (S176/180) protein levels in ex-vivo sorted TCM and TEM. […] (E) PBMCs, from healthy donors, were treated with H2O2 (5 mM) or Ig-cross-linked CD28 (2 Hg/ml) for 15 min at 37° C. and labeled with CD4, CD27, CD45RA and pAKT (S473) specific antibodies. The levels of pAKT were assessed by flow cytometry in TCM- and TEM-gated subsets. The results are represented as the mean fold increase ±SD, calculated as (MFI of stimulated cells/MFI of un-stimulated cells) of five independent experiments. Values of p (determined by two-tailed T-test) are shown.
(§3) Induction and quantification of apoptosis. Apoptotic cells were detected using annexin-V labeling according to the manufacturer's protocol (Biosource). The fluorescence signals were measured by flow cytometry using a BD LSRI flow cytometer (BD-Biosciences). Approximately 50,000-gated events were collected for each sample.
To confirm the importance of the phosphorylation of FOXO3a in memory T-cell survival, purified CD4^+ T cells were treated with different kinase-inhibitors, and apoptosis was assessed by flow cytometry using Annexin-V labeling. […] Moreover, we observed a significant upregulation of the levels of the pro-apoptotic molecule Bim, known to be a FOXO3a target, in cells treated with AKT or IKK inhibitors (three and eightfold respectively) (FIG. 7C). […] None of the other kinase-inhibitors tested induced apoptosis in CD4^+ T cells (FIG. 7B) even when used at much higher concentrations (data not shown). […]

[3] = tested on: Bim; test: Bim expression in CD4+ T cells in response to AKT and IKK inhibitors, Western blot; conditions: 24 h, AKT-IV 1.6 μM, wedelolactone 100 μM
Description: as §1, §2

[4] = tested on: FasL; test: FasL expression in CD4+ T cells after AKT and IKK inhibitors, Western blot or flow cytometry; conditions: data not shown
[5] = tested on: pAKT (S473); test: AKT phosphorylation (S473) in TCM- and TEM-gated PBMCs, PhosFlow; conditions: H2O2 5 mM, 15 min; TCM vs TEM
Description: as §1, with “shown. […]” for “shown.”
To assess the importance of AKT and IKK in the survival of memory T cells, we evaluated the expression of the phosphorylated forms of these proteins in TCM and TEM subsets. […]

[6] = tested on: TCM; test: Apoptosis of sorted TCM induced by kinase inhibitors, Annexin-V labeling; conditions: 24 h, AKT-IV 1.6 μM, wedelolactone 100 μM, n=2
Description: (§4) FIG. 8. Susceptibility of TCM and TEM to apoptosis induced by kinase inhibitors. Sorted TCM and TEM were cultured with or without AKT and IKK inhibitors as indicated. After 24 h, the percentage of apoptotic cells was quantified by Annexin-V-FITC labeling. Upper panel depict Results from a representative individual. Histogram plots show the percent of Annexin-V positive cells in TCM and TEM cells following a 24 h exposure to AKT or IKK-inhibitors. The dashed lines correspond to untreated cells while the plain lines correspond to cells treated with kinase-inhibitors. […] The fold increase of apoptosis is calculated as % of apoptotic cells in treated cells divided by the % of apoptotic cells in untreated cells.
as §3
(§5) After 24 h of treatment, the proportion of apoptotic cells was quantified using Annexin-V labeling (FIG. 8, top panel).

[7] = tested on: TEM; conditions: sorted TEM, 24 h; AKT-IV 1.6 μM, wedelolactone 100 μM; n=2
Description: as §4, §3, §5

[8] = tested on: pSTAT5a (Y694); test: STAT5a phosphorylation in TCM and TEM in response to IL-2 or IL-7, flow cytometry
Description: (B, C and D) PBMCs from healthy donors were treated with IL-2 (100 U/ml) or IL-7 (10 ng/ml) for 15 min at 37° C. Cells were then labeled with Abs to CD4, CD27, CCR7, CD45RA and pSTAT5a. (B) Representative example of pSTAT5a expression levels. TCM-gated cells are represented in light grey and TEM-gated cells are represented in black. (C) Mean Fluorescence Intensity (MFI) of pSTAT5a level of expression measured in response to IL-2 or IL-7, in TCM and TEM (n=4). Mean pSTAT5a signal values are represented by black bars. P-values (determined by a two-tailed T-test) are shown (D) Expression level of CD127, CD25 and CD132 in ex-vivo TCM and TEM.
Flow cytometry analysis of STAT5a and AKT phosphorylation status. PBMCs were resuspended at 20 millions/ml in RPMI and incubated for 30 min in the presence of CCR7-FITC abs (20 μl/million cells) at room temperature. The cells were then washed and re-suspended at a cell concentration of 5 millions per ml in PBS and stimulated for 15 min at 37° C. in the presence of IL-2 (100 U/ml) or IL-7 (10 ng/ml). Following stimulation, the cells were fixed for 10 min at 37 degrees using cytofix buffer (BD Biosciences), pelleted and then permeabilized in PERM-III buffer (BD Biosciences) for 30 min on ice. […]
The phosphorylated form of STAT5a (Y694) (pSTAT5a) was quantified by flow cytometry.

[9] = tested on: pFOXO3a (S253, S315 and T32); test: FOXO3a phosphorylation in CD4+ T cells in response to TCR and cytokine engagement, Western blot; conditions: 30 min, IL-7 10 ng/ml, IL-2 100 U/ml
Description: (A) CD4^+ T cells were cultured in the presence of anti-CD3 (2 μg/ml), anti-CD28 (2 μg/ml), anti-CD3+CD28, IL-2 (100 U/ml), IL-7 (10 ng/ml), IFN-γ (50 μg/ml) or PMA (50 ng/ml) for 15 min and analyzed by Western Blot for pFOXO3a (S315 and S253) expression levels. The results are representative of two independent experiments. (B) CD4^+ T cells were cultured in the presence of anti-CD3/anti-CD28, IL-2 (100 U/ml), IL-7 (10 ng/ml) for 30 min and analyzed by Western Blot for pFOXO3a (T32) expression levels.
Western Blotting analysis. […] Cells were washed twice with PBS and re-suspended in lysis buffer containing 50 mM NaF and 1 mM sodium pyrophosphate. Proteins from total cell extracts (10 μg) were separated on SDS-PAGE and electrotransfered onto PVDF membranes (Roche, Indianapolis, Ind.). Membranes were incubated overnight at 4° C. with specific antibodies as described in the figure legends. Detection of the immune complexes was performed using horseradish peroxidase (HRP)-conjugated goat anti-mouse (1:2500) or goat anti-rabbit IgG antibodies (1:3000). HRP activity was detected using an enhanced chemiluminescence detection procedure (ECL-plus detection system, Amersham Biosciences). Membranes were subsequently stripped and restained with an anti-actin Abs (1:10000). […] Protein expression levels were expressed as a percentage of the highest signals obtained.

Molecule | expression levels of pFOXO3a (S253), fold lower as compared to untreated cells [1] | proportion of Annexin-V+ cells [2] | upregulation of Bim levels [3] | levels of FasL expression [4] | other results
CC[n+]1c(/C=C/N(C)c2ccccc2)n(-c2ccccc2)c2ccc(-c3nc4ccccc4s3)cc21.[I-] [AKT-IV] | eightfold | increased in a dose-dependant fashion | three | did not change | inhibitor treatment concentration [2]: 1.6 µM
OO [H2O2] |  |  |  |  | induction of pAKT (S473) [5]: higher in TCM than TEM
COc1cc(O)c2c(c1)oc(=O)c1c3cc(O)c(O)cc3oc21 [Wedelolactone] | 4.5 fold | increased in a dose-dependant fashion | eightfold | did not change | inhibitor treatment concentration ([2]; Homo sapiens, CD4+ T): 100 µM; increase in Annexin-V+ cells relative to untreated cells [6]: eightfold; increase in Annexin-V+ cells relative to untreated cells [7]: twofold
IL-7: cytokine purchased from R&D systems (protein, UniProt P13232 26-177, looked up) Interleukin-7: DCDIEGKDGKQYESVLMVSIDQLLDSMKEIGSNCLNNEFNFFKRHICDANKEGMFLFRAARKLRQFLKMNSTGDFDLHLLKVSEGTTILLNCTGQVKGRKPAALGEAQPTKSLEENKSLKEQKKLNDLCFLKRLLQEIKTCWNKILMGTKEH |  |  |  |  | proportion of cells that up-regulated pSTAT5a, higher in TCM as compared to TEM ([8]; IL-7 10 ng/ml, 15 min, p<0.002): 30%±6.5; pSTAT5a response ([8]; both TCM and TEM, brief IL-7 treatment): upregulated pSTAT5a; levels of pFOXO3a at T32 [9]: threefold
